What was measured:
[1] = test system: EKVX; test: NCI human cancer cell line growth inhibition: EKVX (NSC Lung); format: cell-based
[2] = test system: A498; test: NCI human cancer cell line growth inhibition: A498 (Renal); format: cell-based
[3] = test system: UO-31; test: NCI human cancer cell line growth inhibition: UO-31 (Renal); format: cell-based
[4] = test system: RPMI-8226; test: NCI human cancer cell line growth inhibition: RPMI-8226 (Leukemia); format: cell-based
[5] = test system: HS 578T; test: NCI human cancer cell line growth inhibition: HS 578T (Breast); format: cell-based
[6] = test system: DU-145; test: NCI human cancer cell line growth inhibition: DU-145 (Prostate); format: cell-based
[7] = test system: SNB-75; test: NCI human cancer cell line growth inhibition: SNB-75 (CNS); format: cell-based
[8] = test system: ACHN; test: NCI human cancer cell line growth inhibition: ACHN (Renal); format: cell-based
[9] = test system: HOP-92; test: NCI human cancer cell line growth inhibition: HOP-92 (NSC Lung); format: cell-based
[10] = test system: SR; test: NCI human cancer cell line growth inhibition: SR (Leukemia); format: cell-based
[11] = test system: NCI-H522; format: cell-based, human; conditions: NCI-H522, NSC Lung
[12] = test system: MDA-MB-435; test: NCI human cancer cell line growth inhibition: MDA-MB-435 (Breast); format: cell-based
[13] = test system: MOLT-4; test: NCI human cancer cell line growth inhibition: MOLT-4 (Leukemia); format: cell-based
[14] = test system: MALME-3M; test: NCI human cancer cell line growth inhibition: MALME-3M (Melanoma); format: cell-based
[15] = test system: KM12; test: NCI human cancer cell line growth inhibition: KM12 (Colon); format: cell-based
[16] = test system: OVCAR-5; test: NCI human cancer cell line growth inhibition: OVCAR-5 (Ovarian); format: cell-based
[17] = test system: SN12C; test: NCI human cancer cell line growth inhibition: SN12C (Renal); format: cell-based
[18] = test system: CCRF-CEM; test: NCI human cancer cell line growth inhibition: CCRF-CEM (Leukemia); format: cell-based
[19] = test system: SNB-19; test: NCI human cancer cell line growth inhibition: SNB-19 (CNS); format: cell-based
[20] = test system: SK-MEL-28; test: NCI human cancer cell line growth inhibition: SK-MEL-28 (Melanoma); format: cell-based
[21] = test system: HOP-62; test: NCI human cancer cell line growth inhibition: HOP-62 (NSC Lung); format: cell-based
[22] = test system: SW-620; test: NCI human cancer cell line growth inhibition: SW-620 (Colon); format: cell-based
[23] = test system: 786-0; test: NCI human cancer cell line growth inhibition: 786-0 (Renal); format: cell-based
[24] = test system: U251; test: NCI human cancer cell line growth inhibition: U251 (CNS); format: cell-based
[25] = test system: TK-10; test: NCI human cancer cell line growth inhibition: TK-10 (Renal); format: cell-based
[26] = test system: SF-295; test: NCI human cancer cell line growth inhibition: SF-295 (CNS); format: cell-based
[27] = test system: CAKI-1; test: NCI human cancer cell line growth inhibition: CAKI-1 (Renal); format: cell-based
[28] = test system: SF-539; test: NCI human cancer cell line growth inhibition: SF-539 (CNS); format: cell-based
[29] = test system: T-47D; test: NCI human cancer cell line growth inhibition: T-47D (Breast); format: cell-based
[30] = test system: NCI-H460; format: cell-based, human; conditions: NCI-H460, NSC Lung
[31] = test system: OVCAR-8; test: NCI human cancer cell line growth inhibition: OVCAR-8 (Ovarian); format: cell-based
[32] = test system: HCC-2998; test: NCI human cancer cell line growth inhibition: HCC-2998 (Colon); format: cell-based
[33] = test system: SK-OV-3; test: NCI human cancer cell line growth inhibition: SK-OV-3 (Ovarian); format: cell-based
[34] = test system: SK-MEL-5; test: NCI human cancer cell line growth inhibition: SK-MEL-5 (Melanoma); format: cell-based
[35] = test system: BT-549; test: NCI human cancer cell line growth inhibition: BT-549 (Breast); format: cell-based
[36] = test system: UACC-62; test: NCI human cancer cell line growth inhibition: UACC-62 (Melanoma); format: cell-based
[37] = test system: SF-268; test: NCI human cancer cell line growth inhibition: SF-268 (CNS); format: cell-based
[38] = test system: LOX IMVI; test: NCI human cancer cell line growth inhibition: LOX IMVI (Melanoma); format: cell-based
[39] = test system: COLO 205; test: NCI human cancer cell line growth inhibition: COLO 205 (Colon); format: cell-based
[40] = test system: MI4; test: NCI human cancer cell line growth inhibition: MI4 (Melanoma); format: cell-based
[41] = test system: OVCAR-4; test: NCI human cancer cell line growth inhibition: OVCAR-4 (Ovarian); format: cell-based
[42] = test system: NCI-H23; format: cell-based, human; conditions: NCI-H23, NSC Lung
[43] = test system: PC-3; test: NCI human cancer cell line growth inhibition: PC-3 (Prostate); format: cell-based
[44] = test system: MDA-N; test: NCI human cancer cell line growth inhibition: MDA-N (Breast); format: cell-based
[45] = test system: MCF7; test: NCI human cancer cell line growth inhibition: MCF7 (Breast); format: cell-based
[46] = test system: A549/ATCC; test: NCI human cancer cell line growth inhibition: A549/ATCC (NSC Lung); format: cell-based
[47] = test system: HCT-116; test: NCI human cancer cell line growth inhibition: HCT-116 (Colon); format: cell-based
[48] = test system: IGROVI; test: NCI human cancer cell line growth inhibition: IGROVI (Ovarian); format: cell-based
[49] = test system: UACC-257; test: NCI human cancer cell line growth inhibition: UACC-257 (Melanoma); format: cell-based
[50] = test system: HCT-15; test: NCI human cancer cell line growth inhibition: HCT-15 (Colon); format: cell-based
[51] = test system: K-562; test: NCI human cancer cell line growth inhibition: K-562 (Leukemia); format: cell-based
[52] = test system: OVCAR-3; test: NCI human cancer cell line growth inhibition: OVCAR-3 (Ovarian); format: cell-based
[53] = test system: SK-MEL-2; test: NCI human cancer cell line growth inhibition: SK-MEL-2 (Melanoma); format: cell-based
[54] = test system: RXF-393; test: NCI human cancer cell line growth inhibition: RXF-393 (Renal); format: cell-based
[55] = test system: HL-60(TB); test: cells; format: cell-based, human
[56] = test system: MDA-MB-231/ATCC; test: NCI human cancer cell line growth inhibition: MDA-MB-231/ATCC (Breast); format: cell-based
[57] = test system: HT29; test: NCI human cancer cell line growth inhibition: HT29 (Colon); format: cell-based
[58] = test system: NCI-H226; format: cell-based, human; conditions: NCI-H226, NSC Lung
[59] = test system: NCI/ADR-RES; format: cell-based, human; conditions: Breast

In the case of `CCC/C=C/C=C/C(=O)O[C@H]1/C(=C/C(=O)OC)C[C@H]2C[C@H]([C@@H](C)O)OC(=O)C[C@H](O)C[C@@H]3C[C@H](OC(C)=O)C(C)(C)[C@](O)(C[C@@H]4C/C(=C/C(=O)OC)C[C@H](/C=C/C(C)(C)[C@]1(O)O2)O4)O3` [Bryo-1, Bryostatin-1, reference compound], the “Growth inhibition (GI50)” value [1] is reported as −5.30 log of molar concentration, the “Growth inhibition (GI50)” value [2] is reported as >−5 log of molar concentration and the “Growth inhibition (GI50)” value [3] is reported as −5.60 log of molar concentration. For the same compound, the “Growth inhibition (GI50)” value [4] was >−5 log of molar concentration, the “Growth inhibition (GI50)” value [5] was −5.2 log of molar concentration and the “Growth inhibition (GI50)” value [6] was >−5 log of molar concentration. The “Growth inhibition (GI50)” value [7] was −5.50 log of molar concentration, the “Growth inhibition (GI50)” value [8] was −5.50 log of molar concentration and the “Growth inhibition (GI50)” value [9] was −5.30 log of molar concentration. For the same compound, the “Growth inhibition (GI50)” value [10] was >−5 log of molar concentration, the “Growth inhibition (GI50)” value [11] was >−5 log of molar concentration and the “Growth inhibition (GI50)” value [12] was −5.10 log of molar concentration. The “Growth inhibition (GI50)” value [13] was −5.50 log of molar concentration, the “Growth inhibition (GI50)” value [14] was −5.20 log of molar concentration and the “Growth inhibition (GI50)” value [15] was −5.20 log of molar concentration. For the same compound, the “Growth inhibition (GI50)” value [16] was >−5 log of molar concentration, the “Growth inhibition (GI50)” value [17] was −5.10 log of molar concentration and the “Growth inhibition (GI50)” value [18] was −5.30 log of molar concentration. The “Growth inhibition (GI50)” value [19] was >−5 log of molar concentration, the “Growth inhibition (GI50)” value [20] was −5.10 log of molar concentration and the “Growth inhibition (GI50)” value [21] was >−5 log of molar concentration. The “Growth inhibition (GI50)” value [22] was −5.50 log of molar concentration, the “Growth inhibition (GI50)” value [23] was −5.20 log of molar concentration and the “Growth inhibition (GI50)” value [24] was −5.10 log of molar concentration. The “Growth inhibition (GI50)” value [25] was >−5 log of molar concentration, the “Growth inhibition (GI50)” value [26] was −5.20 log of molar concentration and the “Growth inhibition (GI50)” value [27] was −5.40 log of molar concentration. For the same compound, the “Growth inhibition (GI50)” value [28] was >−5 log of molar concentration, the “Growth inhibition (GI50)” value [29] was −5.20 log of molar concentration and the “Growth inhibition (GI50)” value [30] was −5.60 log of molar concentration. The “Growth inhibition (GI50)” value [31] was −5.10 log of molar concentration, the “Growth inhibition (GI50)” value [32] was −5.30 log of molar concentration and the “Growth inhibition (GI50)” value [33] was −5.10 log of molar concentration. The “Growth inhibition (GI50)” value [34] was −5.70 log of molar concentration, the “Growth inhibition (GI50)” value [35] was −5.10 log of molar concentration and the “Growth inhibition (GI50)” value [36] was −5.30 log of molar concentration. For the same compound, the “Growth inhibition (GI50)” value [37] was −5.10 log of molar concentration, the “Growth inhibition (GI50)” value [38] was −5.10 log of molar concentration and the “Growth inhibition (GI50)” value [39] was −5.40 log of molar concentration. The “Growth inhibition (GI50)” value [40] was >−5 log of molar concentration, the “Growth inhibition (GI50)” value [41] was −5.50 log of molar concentration and the “Growth inhibition (GI50)” value [42] was >−5 log of molar concentration. The “Growth inhibition (GI50)” value [43] was −5.30 log of molar concentration, the “Growth inhibition (GI50)” value [44] was −5.10 log of molar concentration and the “Growth inhibition (GI50)” value [45] was −5.20 log of molar concentration. The “Growth inhibition (GI50)” value [46] was −5.20 log of molar concentration, the “Growth inhibition (GI50)” value [47] was −5.30 log of molar concentration and the “Growth inhibition (GI50)” value [48] was −5.30 log of molar concentration. For the same compound, the “Growth inhibition (GI50)” value [49] was −5.10 log of molar concentration, the “Growth inhibition (GI50)” value [50] was >−5 log of molar concentration and the “Growth inhibition (GI50)” value [51] was −5.40 log of molar concentration. For the same compound, the “Growth inhibition (GI50)” value [52] was −5.10 log of molar concentration, the “Growth inhibition (GI50)” value [53] was −5.20 log of molar concentration and the “Growth inhibition (GI50)” value [54] was −5.30 log of molar concentration. For the same compound, the “Growth inhibition (GI50)” value [55] was −5.70 log of molar concentration, the “Growth inhibition (GI50)” value [56] was −5.20 log of molar concentration and the “Growth inhibition (GI50)” value [57] was −5.30 log of molar concentration. The “Growth inhibition (GI50)” value [58] was >−5 log of molar concentration and the “Growth inhibition (GI50)” value [59] was >−5 log of molar concentration.

— patent US8735609B2, “Bryostatin analogues, synthetic methods and uses” (The Board of Trustees of the Leland Stanford Junior …, priority 2007, dated 2014)
